Assay: Human HepG2 cell viability assay in 384 well format
Type: toxicity, cell-based
Parameters: dose 125 nL, time 70.5 hour; cytotoxicity at 70.5 h: concentration not given beside the values
Details: HepG2 cells, read-out: Inhibition

Compound CCS(=O)(=O)CC(=O)NCC1(c2c(F)cccc2F)CCCC1 has a cytotoxicity at 70.5 h of 18%.

CC(C)c1nc2n(n1)CC(NCC(=O)NCCC1=CCCCC1)CC2 (stereo not given) gave a cytotoxicity at 70.5 h of -0.816%.

Cc1cc(=O)n(C)cc1NC(=O)NCc1cccc(F)c1 showed a cytotoxicity at 70.5 h of -2.73%.

CCC(CNC(=O)c1nc(=O)[nH][nH]1)Oc1cccc(F)c1 (stereo not given) showed a cytotoxicity at 70.5 h of 0.426%.

Compound CCn1c(CNC(=O)Nc2nc(C)c(C)o2)nc2ccccc21 has a cytotoxicity at 70.5 h of 14.3%.

With CCC(CNC(=O)c1nc(=O)[nH][nH]1)Oc1cccc(C(F)(F)F)c1 (stereo not given) the cytotoxicity at 70.5 h was -3.8%.

Cc1cc(=O)n(C)cc1NC(=O)Cc1cccc(Cl)c1 showed a cytotoxicity at 70.5 h of -0.253%.

Compound Cc1cc(=O)n(C)cc1NC(=O)Cc1cc(F)ccc1F has a cytotoxicity at 70.5 h of 2.11%.

Work on Cn1cc(CNc2ccc(F)c(N3CCCS3(=O)=O)c2)cn1 yielded a cytotoxicity at 70.5 h of -1.61%.

Work on O=C(CCCC1CCCC1)NS(=O)(=O)CC1CC1 yielded a cytotoxicity at 70.5 h of -2.25%.

Cc1nnc(C(C)N(C)Cc2c(C)nn(-c3ccccc3)c2C)o1 (stereo not given) gave a cytotoxicity at 70.5 h of -1.32%.

Work on CC(NCC1CCN(CCO)CC1)c1ccc(OC(F)(F)F)cc1 (stereo not given) yielded a cytotoxicity at 70.5 h of -2.01%.

O=C(c1cccc(Cl)c1Cl)N1CCN(CC(O)Cn2cccn2)CC1 (stereo not given) showed a cytotoxicity at 70.5 h of -2.95%.

In the case of CN(Cc1ccccc1NCc1ncc[nH]1)C(=O)c1cccs1, the cytotoxicity at 70.5 h is reported as 14%.

Compound CN(CCN1CCOCC1)C(=O)C1(c2ccc(F)cc2F)CCC1 has a cytotoxicity at 70.5 h of -2.7%.

In the case of CC(NCC1CCN(CCO)CC1)c1cccnc1 (stereo not given), the cytotoxicity at 70.5 h is reported as 28.1%.

Cc1cc(-n2cncn2)ccc1C(=O)N(CC(F)(F)F)C(C)C showed a cytotoxicity at 70.5 h of -7.81%.

Cc1ccsc1CN(C)Cn1nccc1-c1cccnc1 gave a cytotoxicity at 70.5 h of -2.36%.

CC1(C)CCC(C(=O)N2CCCO2)c2ccccc21 (stereo not given) gave a cytotoxicity at 70.5 h of 9.21%.

Compound Cc1cc(-n2cncn2)ccc1C(=O)N(C)CC(F)(F)C(F)(F)F has a cytotoxicity at 70.5 h of -5.19%.

CC1(C)CCC(C(=O)O)c2ccccc21 (stereo not given) showed a cytotoxicity at 70.5 h of -8.46%.

Compound CN(Cc1ccc(Br)s1)Cn1nc(-c2ccccc2)oc1=O has a cytotoxicity at 70.5 h of -9.53%.

In the case of Cc1ncc(CN(C)Cn2nc(-c3ccccc3)oc2=O)s1, the cytotoxicity at 70.5 h is reported as -13.1%.

Work on CN(C(=O)CNC(=O)CC(C)(C)C)C1CCN(c2ccccn2)CC1 yielded a cytotoxicity at 70.5 h of -6.78%.

In the case of Cc1ccsc1CN(C)c1nc2c(cnn2C(C)(C)C)c(=O)[nH]1, the cytotoxicity at 70.5 h is reported as -4.96%.

Compound Cc1nc(-c2ccccc2)ccc1C(=O)N1CCn2c(C)nnc2C1 has a cytotoxicity at 70.5 h of -11.8%.

For CN(C(=O)CNc1ccc(C#N)cc1)C1CCN(c2ccccn2)CC1, the cytotoxicity at 70.5 h was -10%.

In the case of Cn1nnc2cc(C(=O)NS(=O)(=O)c3cccc(C#N)c3)ccc21, the cytotoxicity at 70.5 h is reported as -5.98%.

Cc1cc(C)c2c(c1)C(NC(=O)CSCC(N)=O)CCO2 (stereo not given) gave a cytotoxicity at 70.5 h of -9.85%.

Compound OC(CN(Cc1ccccc1)Cc1cscn1)c1ccco1 (stereo not given) has a cytotoxicity at 70.5 h of -9.5%.

CCc1noc(CC)c1CNC(=O)Nc1cccc([S+](C)[O-])c1 (stereo not given) showed a cytotoxicity at 70.5 h of -1.9%.

For CCc1noc(CC)c1CNC(=O)Nc1cccc(C(=O)N(C)C)c1, the cytotoxicity at 70.5 h was -1.22%.

Work on Cc1noc(C)c1CN(C)Cn1nccc1-c1cccnc1 yielded a cytotoxicity at 70.5 h of 10.8%.

For O=C(Nc1ccc(F)c(-n2cccc2)c1)NC1(CCO)CCOCC1, the cytotoxicity at 70.5 h was -10.8%.

Work on CCn1c(CN(C)C(=O)c2ccc(OC)nc2)nc2ccccc21 yielded a cytotoxicity at 70.5 h of -11.7%.

CN(C)CC1CCN(Cc2nccn2CC(F)(F)F)CC1 showed a cytotoxicity at 70.5 h of -0.976%.

CCC(C)NC(=O)CS(=O)(=O)Cc1nc(-c2cccs2)no1 (stereo not given) showed a cytotoxicity at 70.5 h of -8.46%.

In the case of Cc1nn(-c2ccccc2)nc1C(=O)NCC(c1ccco1)N(C)C (stereo not given), the cytotoxicity at 70.5 h is reported as -15.6%.

In the case of O=C(CCS(=O)(=O)C1CCCC1)NCCc1cccnc1, the cytotoxicity at 70.5 h is reported as -6.71%.

With O=C(CC1CCCO1)Nc1ccn(Cc2cccc3cccnc23)n1 (stereo not given) the cytotoxicity at 70.5 h was -6.79%.

CCc1nnc2n1CCN(C(=O)c1cnn(C)c1C1CC1)C2 gave a cytotoxicity at 70.5 h of 8.38%.

O=C(COCC1CC1)Nc1ccn(Cc2cccc3cccnc23)n1 showed a cytotoxicity at 70.5 h of -1.28%.

With CC(C)c1nnc2n1CCN(C(=O)c1cnc(C3CC3)s1)C2 the cytotoxicity at 70.5 h was -7.9%.

Work on CCC(C)(C)NC(=O)Nc1nnc(-c2ccccn2)s1 yielded a cytotoxicity at 70.5 h of -10.1%.

Cc1cnn(C2CCN(Cc3ccccc3)C2)c1N (stereo not given) showed a cytotoxicity at 70.5 h of 16%.

With Nc1ccnn1C1CCN(Cc2ccccc2)C1 (stereo not given) the cytotoxicity at 70.5 h was 2.28%.

In the case of CNC(=O)N(Cc1c(F)cccc1F)C1CCCC1, the cytotoxicity at 70.5 h is reported as -3.72%.

Compound Cc1nc(C2CCCCC2)sc1C(=O)O has a cytotoxicity at 70.5 h of 0.584%.

Work on Cc1occc1CNC(=O)Nc1ccc2nc(N3CCOCC3)oc2c1 yielded a cytotoxicity at 70.5 h of -9.42%.

CN(CCCc1n[nH]c(N)c1C#N)C(=O)NC1CC1 gave a cytotoxicity at 70.5 h of -2.78%.

O=C1OCCC1N1CCN(c2ccc(O)cc2)CC1 (stereo not given) gave a cytotoxicity at 70.5 h of 10.3%.

Compound Cc1ccc(C(CNC(=O)Cc2nc3ncccn3n2)N(C)C)cc1 (stereo not given) has a cytotoxicity at 70.5 h of -10.7%.

NC(=O)Nc1cc(Br)cnc1OCC(F)(F)F showed a cytotoxicity at 70.5 h of -7.02%.

In the case of CC(=O)Nc1cc(Br)cnc1OCC(F)(F)F, the cytotoxicity at 70.5 h is reported as 20.4%.

For NC(=O)c1cccc(CCNCc2cccs2)c1, the cytotoxicity at 70.5 h was -3.84%.

COCC(=O)Nc1cc(Br)cnc1OCC(F)(F)F showed a cytotoxicity at 70.5 h of -11.8%.

Compound CN1CCN(C2CCN(c3cnc4ccccc4n3)CC2)C1=O has a cytotoxicity at 70.5 h of -12.4%.

Compound O=C1C(N2CCN(c3ccc(O)cc3)CC2)CCN1C1CCOCC1 (stereo not given) has a cytotoxicity at 70.5 h of 24.5%.

O=C(c1ncncc1Cl)N1CCN(c2ccc(Cl)cc2)CC1 showed a cytotoxicity at 70.5 h of -8.8%.

Work on O=S(=O)(CCC1CCCO1)NCc1ncc(-c2ccccc2)o1 (stereo not given) yielded a cytotoxicity at 70.5 h of 5%.

Reference: ChEMBL document CHEMBL3507680, “University of Dundee, Gates Library screen for HepG2 cell viability”
